Assay results from publication PMC5218480 (PLoS ONE, 2017).

System: MV-4-11 cells
Assay: Gene expression microarray analysis (Affymetrix PrimeView) and GSEA
Assay type: cell-based, human
Set-up: RFU PODN (11730768_x_at) / Fold change /veh PODN (11730768_x_at) / RFU LINC00158 (11744669_a_at) / Fold change /veh LINC00158 (11744669_a_at) / RFU DUSP10 (11751237_a_at) / Fold change /veh DUSP10 (11751237_a_at) / RFU ID3 (11757404_x_at) / Fold change /veh ID3 (11757404_x_at) / RFU PLEKHG5 (11737974_s_at) / Fold change /veh PLEKHG5 (11737974_s_at) / RFU LRRC4B (11730491_at) / Fold change /veh LRRC4B (11730491_at) / RFU GIMAP4 (11747438_a_at) / Fold change /veh GIMAP4 (11747438_a_at) / RFU KRT8 (11758183_x_at) / Fold change /veh KRT8 (11758183_x_at) / RFU CNN1 (11734310_a_at) / Fold change /veh CNN1 (11734310_a_at) / RFU VPS37D (11726825_at) / Fold change /veh VPS37D (11726825_at) / RFU C10orf10 (11716522_x_at) / Fold change /veh C10orf10 (11716522_x_at) / RFU KIR2DL2 /// KIR2DL4 /// KIR2DL5A /// KIR2DL5B /// KIR2DS1 /// KIR2DS2 /// KIR2DS3 /// KIR2DS4 /// KIR3DL3 /// KIR3DL3 /// KIR3DS1 (11738374_at) / Fold change /veh KIR2DL2 /// KIR2DL4 /// KIR2DL5A /// KIR2DL5B /// KIR2DS1 /// KIR2DS2 /// KIR2DS3 /// KIR2DS4 /// KIR3DL3 /// KIR3DL3 /// KIR3DS1 (11738374_at) / RFU C1QL1 (11718748_at) / Fold change /veh C1QL1 (11718748_at) / RFU TMPRSS4 (11747572_a_at) / Fold change /veh TMPRSS4 (11747572_a_at) / RFU HAMP (11756126_x_at) / Fold change /veh HAMP (11756126_x_at) / RFU RNFT2 (11725882_a_at) / Fold change /veh RNFT2 (11725882_a_at) / RFU NR4A2 (11747474_a_at) / Fold change /veh NR4A2 (11747474_a_at) / RFU ABCC12 (11746883_a_at) / Fold change /veh ABCC12 (11746883_a_at) / RFU TMEM136 (11760407_x_at) / Fold change /veh TMEM136 (11760407_x_at) / RFU CLDN22 /// WWC2 (11732394_at) / Fold change /veh CLDN22 /// WWC2 (11732394_at) / RFU HLA-DPB1 (11760878_x_at) / Fold change /veh HLA-DPB1 (11760878_x_at) / RFU SPINT1 (11716480_a_at) / Fold change /veh SPINT1 (11716480_a_at) / RFU GAP43 (11754022_s_at) / Fold change /veh GAP43 (11754022_s_at) / RFU A4GNT (11735810_at) / Fold change /veh A4GNT (11735810_at) / RFU PRB3 (11715151_x_at) / Fold change /veh PRB3 (11715151_x_at) / RFU TUBB4B (11761932_at) / Fold change /veh TUBB4B (11761932_at) / RFU CAPN14 (11732068_a_at) / Fold change /veh CAPN14 (11732068_a_at) / RFU TMCC2 (11721928_a_at) / Fold change /veh TMCC2 (11721928_a_at) / RFU IRGQ (11745062_a_at) / Fold change /veh IRGQ (11745062_a_at) / RFU FAM174B (11720279_a_at) / Fold change /veh FAM174B (11720279_a_at) / RFU TMPRSS4 (11748680_a_at) / Fold change /veh TMPRSS4 (11748680_a_at) / RFU FAM212B (11763350_a_at) / Fold change /veh FAM212B (11763350_a_at) / RFU PLEKHG5 (11743358_a_at) / Fold change /veh PLEKHG5 (11743358_a_at) / RFU ZSCAN30 (11745921_a_at) / Fold change /veh ZSCAN30 (11745921_a_at) / RFU CMKLR1 (11741424_a_at) / Fold change /veh CMKLR1 (11741424_a_at) / RFU LOC101060620 /// MAPK8IP1 (11723275_at) / Fold change /veh LOC101060620 /// MAPK8IP1 (11723275_at) / RFU SPTSSB (11747773_x_at) / Fold change /veh SPTSSB (11747773_x_at) / RFU PRSS12 (11739890_at) / Fold change /veh PRSS12 (11739890_at) / RFU BIN1 (11741810_x_at) / Fold change /veh BIN1 (11741810_x_at) / RFU WNT11 (11732464_a_at) / Fold change /veh WNT11 (11732464_a_at) / RFU C10orf10 (11716521_a_at) / Fold change /veh C10orf10 (11716521_a_at) / RFU C5orf56 (11738089_at) / Fold change /veh C5orf56 (11738089_at) / RFU CYB561 (11721691_x_at) / Fold change /veh CYB561 (11721691_x_at) / RFU ANKRD19P (11752326_a_at) / Fold change /veh ANKRD19P (11752326_a_at) / RFU OR2T12 /// OR2T33 /// OR2T8 (11738714_s_at) / Fold change /veh OR2T12 /// OR2T33 /// OR2T8 (11738714_s_at) / RFU VCAN (11748164_a_at) / Fold change /veh VCAN (11748164_a_at) / RFU JSRP1 (11732532_at) / Fold change /veh JSRP1 (11732532_at) / RFU KRTAP10-11 (11738290_x_at) / Fold change /veh KRTAP10-11 (11738290_x_at) / RFU MYO3A (11730013_a_at) / Fold change /veh MYO3A (11730013_a_at) / RFU EBF3 (11725865_a_at) / Fold change /veh EBF3 (11725865_a_at) / RFU CAMK2N1 (11719241_x_at) / Fold change /veh CAMK2N1 (11719241_x_at) / RFU C5orf56 (11738088_a_at) / Fold change /veh C5orf56 (11738088_a_at) / RFU OLFML3 (11715873_a_at) / Fold change /veh OLFML3 (11715873_a_at) / RFU LOC100653217 /// NTM (11731650_a_at) / Fold change /veh LOC100653217 /// NTM (11731650_a_at) / RFU MAPK11 (11762145_a_at) / Fold change /veh MAPK11 (11762145_a_at) / RFU FIZ1 (11724087_x_at) / Fold change /veh FIZ1 (11724087_x_at) / RFU OASL (11726364_x_at) / Fold change /veh OASL (11726364_x_at) / RFU SOX15 (11748057_x_at) / Fold change /veh SOX15 (11748057_x_at) / RFU CD79A (11719716_a_at) / Fold change /veh CD79A (11719716_a_at) / RFU HIST1H1D (11736915_at) / Fold change /veh HIST1H1D (11736915_at) / RFU CASKIN2 (11723855_a_at) / Fold change /veh CASKIN2 (11723855_a_at) / RFU LOC730098 (11760151_x_at) / Fold change /veh LOC730098 (11760151_x_at) / RFU OR4N2 (11742367_at) / Fold change /veh OR4N2 (11742367_at) / RFU PRRT2 (11749266_a_at) / Fold change /veh PRRT2 (11749266_a_at) / RFU SNX32 (11753110_a_at) / Fold change /veh SNX32 (11753110_a_at) / RFU CDHR5 (11726645_a_at) / Fold change /veh CDHR5 (11726645_a_at) / RFU RCAN1 (11760418_a_at) / Fold change /veh RCAN1 (11760418_a_at) / RFU FAM167A (11723789_a_at) / Fold change /veh FAM167A (11723789_a_at) / RFU FAM26E (11764081_at) / Fold change /veh FAM26E (11764081_at) / RFU ISYNA1 (11749810_s_at) / Fold change /veh ISYNA1 (11749810_s_at) / RFU ACY1 (11761880_at) / Fold change /veh ACY1 (11761880_at) / RFU 11764098_at / Fold change /veh 11764098_at / RFU SAMD14 (11745864_x_at) / Fold change /veh SAMD14 (11745864_x_at) / RFU NPB (11741838_a_at) / Fold change /veh NPB (11741838_a_at) / RFU TMPRSS6 (11731388_a_at) / Fold change /veh TMPRSS6 (11731388_a_at) / RFU KRTAP10-2 (11738614_at) / Fold change /veh KRTAP10-2 (11738614_at) / RFU ARHGAP8 /// PRR5-ARHGAP8 (11727945_x_at) / Fold change /veh ARHGAP8 /// PRR5-ARHGAP8 (11727945_x_at) / RFU KRTAP5-7 /// NADSYN1 (11734609_at) / Fold change /veh KRTAP5-7 /// NADSYN1 (11734609_at) / RFU RASL12 (11751679_a_at) / Fold change /veh RASL12 (11751679_a_at) / RFU CDKN2B (11736163_a_at) / Fold change /veh CDKN2B (11736163_a_at) / RFU PRF1 (11729649_at) / Fold change /veh PRF1 (11729649_at) / RFU, ZNF638 /// ZNF638-IT1 / Fold change vs veh, ZNF638 /// ZNF638-IT1 / RFU, PANK3 / Fold change vs veh, PANK3 / RFU, SH3YL1 / Fold change vs veh, SH3YL1 / RFU, ZEB2 / Fold change vs veh, ZEB2 / RFU, NRIP1 / Fold change vs veh, NRIP1 / RFU, PTTG1IP / Fold change vs veh, PTTG1IP / RFU, CAPN2 / Fold change vs veh, CAPN2 / RFU, MED14 / Fold change vs veh, MED14 / RFU, SNORA58 / Fold change vs veh, SNORA58 / RFU, C1orf63 / Fold change vs veh, C1orf63 / RFU, LRRFIP1 / Fold change vs veh, LRRFIP1 / RFU, NDUFAF7 / Fold change vs veh, NDUFAF7 / RFU, SLC12A2 / Fold change vs veh, SLC12A2 / RFU, IBTK / Fold change vs veh, IBTK / RFU, ESF1 / Fold change vs veh, ESF1 / Fold change vs veh, TMEM50B / RFU, TAOK1 / Fold change vs veh, TAOK1 / RFU, ACBD3 / Fold change vs veh, ACBD3 / RFU, TMA16 / Fold change vs veh, TMA16 / RFU, RWDD3 / Fold change vs veh, RWDD3 / RFU, BCAT1 / Fold change vs veh, BCAT1 / RFU, EDEM3 / Fold change vs veh, EDEM3 / RFU, TMEM33 / Fold change vs veh, TMEM33 / RFU, WDR75 / Fold change vs veh, WDR75 / RFU, AHCTF1 / Fold change vs veh, AHCTF1 / RFU, TFRC / Fold change vs veh, TFRC / RFU, ZDHHC17 / Fold change vs veh, ZDHHC17 / RFU, NOM1 / Fold change vs veh, NOM1 / RFU, ARL8B / Fold change vs veh, ARL8B / RFU, ZBTB11 / Fold change vs veh, ZBTB11 / RFU, TAMM41 / Fold change vs veh, TAMM41 / RFU, KIAA1704 /// LOC100996395 / Fold change vs veh, KIAA1704 /// LOC100996395 / RFU, ING1 / Fold change vs veh, ING1 / RFU, TRMT61B / Fold change vs veh, TRMT61B / RFU, FUBP3 / Fold change vs veh, FUBP3 / RFU, TP53 / Fold change vs veh, TP53 / RFU, TNKS2 / Fold change vs veh, TNKS2 / RFU, ZFP14 / Fold change vs veh, ZFP14 / RFU, ACTR2 / Fold change vs veh, ACTR2 / RFU, PPP3R1 / Fold change vs veh, PPP3R1 / RFU, PIK3R1 / Fold change vs veh, PIK3R1 / RFU, HNRNPA1 / Fold change vs veh, HNRNPA1 / RFU, RNF170 / Fold change vs veh, RNF170 / RFU, ZNF28 / Fold change vs veh, ZNF28 / RFU, RNGTT / Fold change vs veh, RNGTT / RFU, OGT / Fold change vs veh, OGT / RFU, BRD1 / Fold change vs veh, BRD1 / RFU, MARS / Fold change vs veh, MARS / RFU, ZNF655 / Fold change vs veh, ZNF655 / RFU, FAHD1 / Fold change vs veh, FAHD1 / RFU, BDP1 / Fold change vs veh, BDP1 / RFU, LRRCC1 / Fold change vs veh, LRRCC1 / RFU, ARID1A / Fold change vs veh, ARID1A / RFU, ZNF146 / Fold change vs veh, ZNF146 / RFU, ZNF330 / Fold change vs veh, ZNF330 / RFU, GPN3 / Fold change vs veh, GPN3 / RFU, C9orf123 / Fold change vs veh, C9orf123 / RFU, N4BP2L2 / Fold change vs veh, N4BP2L2 / RFU, ARFIP1 / Fold change vs veh, ARFIP1 / RFU, FAM179B / Fold change vs veh, FAM179B / RFU, BCL10 / Fold change vs veh, BCL10 / RFU, UHRF1BP1L / Fold change vs veh, UHRF1BP1L / RFU, BET1 / Fold change vs veh, BET1 / RFU, CNOT2 / Fold change vs veh, CNOT2 / RFU, ZNF268 / Fold change vs veh, ZNF268 / Fold change vs veh, ZNF507 / RFU, DGCR2 / Fold change vs veh, DGCR2 / RFU, WDSUB1 / Fold change vs veh, WDSUB1 / Fold change vs veh, HSP90B1 /// MIR3652 / RFU, ADSS / Fold change vs veh, ADSS / RFU, GK / Fold change vs veh, GK / RFU, ZNF148 / Fold change vs veh, ZNF148 / RFU, TAF9 / Fold change vs veh, TAF9 / RFU, SLC1A5 / Fold change vs veh, SLC1A5 / RFU, SLMO2 / Fold change vs veh, SLMO2 / RFU, ABCC4 / Fold change vs veh, ABCC4 / RFU, LOC101060439 /// RAP1B / Fold change vs veh, LOC101060439 /// RAP1B / RFU, RFX7 / Fold change vs veh, RFX7 / RFU, GTPBP10 / Fold change vs veh, GTPBP10 / RFU, CNEP1R1 / Fold change vs veh, CNEP1R1 / RFU, BIVM-ERCC5 /// ERCC5 / Fold change vs veh, BIVM-ERCC5 /// ERCC5 / RFU, ILF3 / Fold change vs veh, ILF3 / RFU 11762660_at / Fold change /veh 11762660_at / RFU VCAN (11757783_s_at) / Fold change /veh VCAN (11757783_s_at) / RFU DDX43 (11728927_at) / Fold change /veh DDX43 (11728927_at) / RFU KRT8 (11758188_x_at) / Fold change /veh KRT8 (11758188_x_at) / RFU NKD1 (11759106_at) / Fold change /veh NKD1 (11759106_at) / RFU SRD5A1 (11742802_a_at) / Fold change /veh SRD5A1 (11742802_a_at) / RFU TPSAB1 /// TPSB2 (11721975_s_at) / Fold change /veh TPSAB1 /// TPSB2 (11721975_s_at) / RFU GSTM3 (11746129_a_at) / Fold change /veh GSTM3 (11746129_a_at) / RFU IL23R (11737362_x_at) / Fold change /veh IL23R (11737362_x_at) / RFU TMEM51 (11727254_a_at) / Fold change /veh TMEM51 (11727254_a_at) / RFU PIWIL2 (11732686_x_at) / Fold change /veh PIWIL2 (11732686_x_at) / RFU ORM1 (11744905_x_at) / Fold change /veh ORM1 (11744905_x_at) / RFU CCDC152 (11743942_at) / Fold change /veh CCDC152 (11743942_at) / RFU ECM1 (11717891_a_at) / Fold change /veh ECM1 (11717891_a_at) / RFU IL23R (11748794_a_at) / Fold change /veh IL23R (11748794_a_at) / RFU TNFAIP8L3 (11732012_x_at) / Fold change /veh TNFAIP8L3 (11732012_x_at) / RFU MBOAT4 (11741988_at) / Fold change /veh MBOAT4 (11741988_at) / RFU 11764193_at / Fold change /veh 11764193_at / RFU TMEM53 (11763286_at) / Fold change /veh TMEM53 (11763286_at) / RFU MAGEB2 (11727129_at) / Fold change /veh MAGEB2 (11727129_at) / RFU TMEM200A (11744735_a_at) / Fold change /veh TMEM200A (11744735_a_at) / RFU CCDC152 (11751479_a_at) / Fold change /veh CCDC152 (11751479_a_at) / RFU FAM211A (11726209_a_at) / Fold change /veh FAM211A (11726209_a_at) / RFU RGS16 (11746705_a_at) / Fold change /veh RGS16 (11746705_a_at) / RFU VCAN (11755009_s_at) / Fold change /veh VCAN (11755009_s_at) / RFU RHOB (11743442_s_at) / Fold change /veh RHOB (11743442_s_at) / RFU RGS16 (11720943_a_at) / Fold change /veh RGS16 (11720943_a_at) / RFU RGS16 (11720944_at) / Fold change /veh RGS16 (11720944_at) / RFU, VPS4B / Fold change vs veh, VPS4B / RFU, CREB1 / Fold change vs veh, CREB1 / RFU, DNAJC13 / Fold change vs veh, DNAJC13 / RFU, GNAQ / Fold change vs veh, GNAQ / RFU, CDK5R1 / Fold change vs veh, CDK5R1 / RFU, ZRANB3 / Fold change vs veh, ZRANB3 / RFU, CUL4A / Fold change vs veh, CUL4A / RFU, CCNY / Fold change vs veh, CCNY / RFU, UFL1 / Fold change vs veh, UFL1 / RFU, COG3 / Fold change vs veh, COG3 / RFU, DIAPH2 / Fold change vs veh, DIAPH2 / RFU, SKA2 / Fold change vs veh, SKA2 / RFU, AFF3 / Fold change vs veh, AFF3 / RFU, LMF1 / Fold change vs veh, LMF1 / RFU, IPO11 / Fold change vs veh, IPO11 / RFU, DFFB / Fold change vs veh, DFFB / RFU, FOXP1 / Fold change vs veh, FOXP1 / RFU, CARD8 / Fold change vs veh, CARD8 / RFU, STRN3 / Fold change vs veh, STRN3 / RFU, ADK / Fold change vs veh, ADK / RFU, RASSF2 / Fold change vs veh, RASSF2 / RFU, WIPF1 / Fold change vs veh, WIPF1 / RFU, LARP1B / Fold change vs veh, LARP1B / RFU, RASA1 / Fold change vs veh, RASA1 / RFU, RB1 / Fold change vs veh, RB1 / RFU, PPFIA1 / Fold change vs veh, PPFIA1 / RFU, MAT2A / Fold change vs veh, MAT2A / RFU, CCT5 / Fold change vs veh, CCT5 / RFU, WDR92 / Fold change vs veh, WDR92 / RFU, CUX1 / Fold change vs veh, CUX1 / RFU, TTC7A / Fold change vs veh, TTC7A / RFU, TMEM135 / Fold change vs veh, TMEM135 / RFU, DEPTOR / Fold change vs veh, DEPTOR / RFU, CPM / Fold change vs veh, CPM / RFU, DNAJB6 / Fold change vs veh, DNAJB6 / RFU, CACNA2D3 / Fold change vs veh, CACNA2D3 / RFU, DTX4 / Fold change vs veh, DTX4 / RFU, TFCP2 / Fold change vs veh, TFCP2 / RFU, GMCL1 /// GMCL1P1 / Fold change vs veh, GMCL1 /// GMCL1P1 / RFU, AEBP2 / Fold change vs veh, AEBP2 / RFU, SNHG1 /// SNORD22 /// SNORD25 /// SNORD26 /// SNORD27 /// SNORD28 /// SNORD29 /// SNORD31 / Fold change vs veh, SNHG1 /// SNORD22 /// SNORD25 /// SNORD26 /// SNORD27 /// SNORD28 /// SNORD29 /// SNORD31 / Fold change (Aza/veh), C12orf56 (ProbeSet 11735607_a_at) / Fold change (ACY-1035/veh), C12orf56 (ProbeSet 11735607_a_at) / Fold change (Aza/veh), FGFR1OP (ProbeSet 11751329_s_at) / Fold change (ACY-1035/veh), FGFR1OP (ProbeSet 11751329_s_at) / Fold change (Aza/veh), VPS36 (ProbeSet 11739960_a_at) / Fold change (ACY-1035/veh), VPS36 (ProbeSet 11739960_a_at) / RFU SYPL1 (11715823_x_at) / Fold change /veh SYPL1 (11715823_x_at) / RFU IGFBP7 (11715501_s_at) / Fold change /veh IGFBP7 (11715501_s_at) / RFU REEP3 (11722064_at) / Fold change /veh REEP3 (11722064_at) / RFU IGLL1 (11728026_x_at) / Fold change /veh IGLL1 (11728026_x_at): dose or concentration left out as unconfirmed
Settings: ProbeSet 11717914_a_at; LIST B

Nc1ccc(-c2cccs2)cc1NC(=O)c1ccc2c(c1)cc(C1CC1)n2CCN1CCOCC1 [ACY-1035] was tested. Which “Fold change vs veh, BIVM-ERCC5 /// ERCC5” value did it give?
Its value is 1.00.
